From PubChem BioAssay (NCI)
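1) Cells in 96-well plates. 2) Compound, 48 h, 5 concentrations. 3) Linear interpolation between surrounding doses. 4) Unreached endpoint = highest concentration. The concentration for 50% growth inhibition is given as GI50. The concentration for full growth arrest is given as TGI.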

How the values were obtained:
Experiment in all cases: NCI anticancer screen, dose series, 48 h
786-0 renal = tested on: 786-0 renal
A498 renal = tested on: A498 renal
A549 NSCLC = tested on: A549 NSCLC
ACHN renal = tested on: ACHN renal
BT-549 breast = tested on: BT-549 breast
CAKI-1 renal = tested on: CAKI-1 renal
CCRF-CEM leukemia = tested on: CCRF-CEM leukemia
COLO 205 colon = tested on: COLO 205 colon
DU-145 prostate = tested on: DU-145 prostate
EKVX NSCLC = tested on: EKVX NSCLC
HCC-2998 colon = tested on: HCC-2998 colon
HCT-116 colon = tested on: HCT-116 colon
HCT-15 colon = tested on: HCT-15 colon
HL-60(TB) leukemia = tested on: HL-60(TB) leukemia
HOP-62 NSCLC = tested on: HOP-62 NSCLC
HOP-92 NSCLC = tested on: HOP-92 NSCLC
HS 578T breast = tested on: HS 578T breast
HT29 colon = tested on: HT29 colon
IGROV1 ovarian = tested on: IGROV1 ovarian
K-562 leukemia = tested on: K-562 leukemia
KM12 colon = tested on: KM12 colon
LOX IMVI melanoma = tested on: LOX IMVI melanoma
M14 melanoma = tested on: M14 melanoma
MALME-3M melanoma = tested on: MALME-3M melanoma
MCF7 breast = tested on: MCF7 breast
MDA-MB-231 breast = tested on: MDA-MB-231 breast
MDA-MB-435 = tested on: MDA-MB-435
MOLT-4 leukemia = tested on: MOLT-4 leukemia
NCI-H226 lung = tested on: NCI-H226 lung
NCI-H23 lung = tested on: NCI-H23 lung
NCI-H460 lung = tested on: NCI-H460 lung
NCI-H522 lung = tested on: NCI-H522 lung
NCI/ADR-RES ovarian = tested on: NCI/ADR-RES ovarian
OVCAR-3 ovarian = tested on: OVCAR-3 ovarian
OVCAR-4 ovarian = tested on: OVCAR-4 ovarian
OVCAR-5 ovarian = tested on: OVCAR-5 ovarian
PC-3 prostate = tested on: PC-3 prostate
RPMI-8226 leukemia = tested on: RPMI-8226 leukemia
RXF 393 renal = tested on: RXF 393 renal
SF-268 CNS = tested on: SF-268 CNS
SF-295 CNS = tested on: SF-295 CNS
SF-539 CNS = tested on: SF-539 CNS
SK-MEL-2 melanoma = tested on: SK-MEL-2 melanoma
SK-MEL-28 melanoma = tested on: SK-MEL-28 melanoma
SK-MEL-5 melanoma = tested on: SK-MEL-5 melanoma
SK-OV-3 ovarian = tested on: SK-OV-3 ovarian
SN12C renal = tested on: SN12C renal
SNB-19 CNS = tested on: SNB-19 CNS
SNB-75 CNS = tested on: SNB-75 CNS
SR leukemia = tested on: SR leukemia
SW-620 colon = tested on: SW-620 colon
T-47D breast = tested on: T-47D breast
TK-10 renal = tested on: TK-10 renal
U251 CNS = tested on: U251 CNS
UACC-257 melanoma = tested on: UACC-257 melanoma
UACC-62 melanoma = tested on: UACC-62 melanoma
UO-31 renal = tested on: UO-31 renal

Q: For `COc1ccc(CN2C(=O)/C(=C\C(=O)c3ccc(OCCN4CCCCC4)cc3)c3ccccc32)cc1`, which GI50 (786-0 renal) is on record?
A: 1.66 µM

Q: And the TGI (786-0 renal)?
A: 3.11 µM

Q: What about the GI50 (A498 renal) of the same molecule?
A: 13.5 µM

Q: And the TGI (A498 renal)?
A: 27 µM

Q: What about the GI50 (A549 NSCLC) of the same molecule?
A: 15.9 µM

Q: And the TGI (A549 NSCLC)?
A: 31.2 µM

Q: And the GI50 (ACHN renal)?
A: 1.69 µM

Q: What about the TGI (ACHN renal) of the same molecule?
A: 3.05 µM

Q: And the GI50 (BT-549 breast)?
A: 5.25 µM

Q: What about the TGI (BT-549 breast) of the same molecule?
A: 16.5 µM

Q: And the GI50 (CAKI-1 renal)?
A: 5.09 µM

Q: And the TGI (CAKI-1 renal)?
A: 18.1 µM

Q: And the GI50 (CCRF-CEM leukemia)?
A: 3.01 µM

Q: What about the TGI (CCRF-CEM leukemia) of the same molecule?
A: 14 µM

Q: What about the GI50 (COLO 205 colon) of the same molecule?
A: 1.86 µM

Q: What about the TGI (COLO 205 colon) of the same molecule?
A: 3.97 µM

Q: And the GI50 (DU-145 prostate)?
A: 3.35 µM

Q: What about the TGI (DU-145 prostate) of the same molecule?
A: 11.5 µM

Q: And the GI50 (EKVX NSCLC)?
A: 4.94 µM

Q: And the TGI (EKVX NSCLC)?
A: 19.6 µM

Q: What about the GI50 (HCC-2998 colon) of the same molecule?
A: 2.4 µM

Q: And the TGI (HCC-2998 colon)?
A: 5.05 µM

Q: What about the GI50 (HCT-116 colon) of the same molecule?
A: 1.54 µM

Q: What about the TGI (HCT-116 colon) of the same molecule?
A: 2.88 µM

Q: What about the GI50 (HCT-15 colon) of the same molecule?
A: 1.67 µM

Q: And the TGI (HCT-15 colon)?
A: 3.37 µM

Q: And the GI50 (HL-60(TB) leukemia)?
A: 2.35 µM

Q: And the TGI (HL-60(TB) leukemia)?
A: 6.43 µM

Q: What about the GI50 (HOP-62 NSCLC) of the same molecule?
A: 20.2 µM

Q: And the TGI (HOP-62 NSCLC)?
A: 35.4 µM

Q: And the GI50 (HOP-92 NSCLC)?
A: 1.64 µM

Q: What about the TGI (HOP-92 NSCLC) of the same molecule?
A: 3.89 µM

Q: And the GI50 (HS 578T breast)?
A: 3.79 µM

Q: What about the TGI (HS 578T breast) of the same molecule?
A: 25.5 µM

Q: What about the GI50 (HT29 colon) of the same molecule?
A: 1.8 µM

Q: And the TGI (HT29 colon)?
A: 3.57 µM

Q: What about the GI50 (IGROV1 ovarian) of the same molecule?
A: 2.08 µM

Q: And the TGI (IGROV1 ovarian)?
A: 4.48 µM

Q: And the GI50 (K-562 leukemia)?
A: 2.31 µM

Q: What about the TGI (K-562 leukemia) of the same molecule?
A: 10.4 µM

Q: And the GI50 (KM12 colon)?
A: 12 µM

Q: What about the TGI (KM12 colon) of the same molecule?
A: 28.6 µM

Q: And the GI50 (LOX IMVI melanoma)?
A: 1.65 µM

Q: What about the TGI (LOX IMVI melanoma) of the same molecule?
A: 3.04 µM

Q: What about the GI50 (M14 melanoma) of the same molecule?
A: 1.83 µM

Q: What about the TGI (M14 melanoma) of the same molecule?
A: 3.85 µM

Q: And the GI50 (MALME-3M melanoma)?
A: 1.82 µM

Q: And the TGI (MALME-3M melanoma)?
A: 3.41 µM

Q: What about the GI50 (MCF7 breast) of the same molecule?
A: 1.85 µM

Q: And the TGI (MCF7 breast)?
A: 4.6 µM

Q: And the GI50 (MDA-MB-231 breast)?
A: 2.15 µM

Q: And the TGI (MDA-MB-231 breast)?
A: 4.56 µM

Q: What about the GI50 (MDA-MB-435) of the same molecule?
A: 3.12 µM

Q: And the TGI (MDA-MB-435)?
A: 12.3 µM

Q: What about the GI50 (MOLT-4 leukemia) of the same molecule?
A: 2.26 µM

Q: What about the TGI (MOLT-4 leukemia) of the same molecule?
A: 6.26 µM

Q: What about the GI50 (NCI-H226 lung) of the same molecule?
A: 14.9 µM

Q: And the TGI (NCI-H226 lung)?
A: 32.2 µM

Q: What about the GI50 (NCI-H23 lung) of the same molecule?
A: 6.68 µM

Q: What about the TGI (NCI-H23 lung) of the same molecule?
A: 21.6 µM

Q: And the GI50 (NCI-H460 lung)?
A: 7.67 µM

Q: And the TGI (NCI-H460 lung)?
A: 22.3 µM

Q: What about the GI50 (NCI-H522 lung) of the same molecule?
A: 1.97 µM

Q: And the TGI (NCI-H522 lung)?
A: 3.78 µM

Q: What about the GI50 (NCI/ADR-RES ovarian) of the same molecule?
A: 3.84 µM

Q: And the TGI (NCI/ADR-RES ovarian)?
A: 22.5 µM

Q: What about the GI50 (OVCAR-3 ovarian) of the same molecule?
A: 1.93 µM

Q: What about the TGI (OVCAR-3 ovarian) of the same molecule?
A: 3.94 µM

Q: And the GI50 (OVCAR-4 ovarian)?
A: 2.62 µM

Q: What about the TGI (OVCAR-4 ovarian) of the same molecule?
A: 8.13 µM

Q: What about the GI50 (OVCAR-5 ovarian) of the same molecule?
A: 1.88 µM

Q: And the TGI (OVCAR-5 ovarian)?
A: 5.94 µM

Q: What about the GI50 (PC-3 prostate) of the same molecule?
A: 2.7 µM

Q: What about the TGI (PC-3 prostate) of the same molecule?
A: 5.55 µM

Q: What about the GI50 (RPMI-8226 leukemia) of the same molecule?
A: 2.31 µM

Q: What about the TGI (RPMI-8226 leukemia) of the same molecule?
A: 5.62 µM

Q: And the GI50 (RXF 393 renal)?
A: 1.69 µM

Q: And the TGI (RXF 393 renal)?
A: 3.22 µM

Q: What about the GI50 (SF-268 CNS) of the same molecule?
A: 4.03 µM

Q: And the TGI (SF-268 CNS)?
A: 19.5 µM

Q: What about the GI50 (SF-295 CNS) of the same molecule?
A: 13.8 µM

Q: What about the TGI (SF-295 CNS) of the same molecule?
A: 31.8 µM

Q: What about the GI50 (SF-539 CNS) of the same molecule?
A: 1.9 µM

Q: What about the TGI (SF-539 CNS) of the same molecule?
A: 3.67 µM

Q: And the GI50 (SK-MEL-2 melanoma)?
A: 13.8 µM

Q: What about the TGI (SK-MEL-2 melanoma) of the same molecule?
A: 27.9 µM

Q: What about the GI50 (SK-MEL-28 melanoma) of the same molecule?
A: 1.98 µM

Q: And the TGI (SK-MEL-28 melanoma)?
A: 4.02 µM

Q: What about the GI50 (SK-MEL-5 melanoma) of the same molecule?
A: 11 µM

Q: And the TGI (SK-MEL-5 melanoma)?
A: 23.5 µM

Q: And the GI50 (SK-OV-3 ovarian)?
A: 18.4 µM

Q: And the TGI (SK-OV-3 ovarian)?
A: 34.3 µM

Q: What about the GI50 (SN12C renal) of the same molecule?
A: 1.74 µM

Q: What about the TGI (SN12C renal) of the same molecule?
A: 3.5 µM

Q: What about the GI50 (SNB-19 CNS) of the same molecule?
A: 4.63 µM

Q: And the TGI (SNB-19 CNS)?
A: 17.1 µM

Q: And the GI50 (SNB-75 CNS)?
A: 12.8 µM

Q: And the TGI (SNB-75 CNS)?
A: 27.6 µM

Q: And the GI50 (SR leukemia)?
A: 2.04 µM

Q: And the TGI (SR leukemia)?
A: 7.4 µM

Q: What about the GI50 (SW-620 colon) of the same molecule?
A: 1.74 µM

Q: And the TGI (SW-620 colon)?
A: 3.51 µM

Q: What about the GI50 (T-47D breast) of the same molecule?
A: 1.64 µM

Q: What about the TGI (T-47D breast) of the same molecule?
A: 3.29 µM

Q: What about the GI50 (TK-10 renal) of the same molecule?
A: 1.69 µM

Q: What about the TGI (TK-10 renal) of the same molecule?
A: 3.18 µM

Q: What about the GI50 (U251 CNS) of the same molecule?
A: 2.24 µM

Q: What about the TGI (U251 CNS) of the same molecule?
A: 5.15 µM

Q: And the GI50 (UACC-257 melanoma)?
A: 16.8 µM

Q: What about the TGI (UACC-257 melanoma) of the same molecule?
A: 30.8 µM

Q: And the GI50 (UACC-62 melanoma)?
A: 1.67 µM

Q: What about the TGI (UACC-62 melanoma) of the same molecule?
A: 3.13 µM

Q: And the GI50 (UO-31 renal)?
A: 1.57 µM

Q: What about the TGI (UO-31 renal) of the same molecule?
A: 2.92 µM
